From patent US9063142B1, “Method of predicting sensitivity to prostate cancer therapy” (University of Florida, priority 2004, dated 2015)

How the values were obtained:
Type in all cases: cell-based, human
LNCaP cells [1] = test: PARP cleavage by Western blotting; conditions: 30 micro-M pifithrin-alpha 24 hr, then 25 micro-M roscovitine 16 hr, FIG. 5A
Protocol: (§2) Cells were rinsed with PBS and lysed in a buffer containing 50 mM Hepes, pH 7.5, 150 mM NaCl, 1 mM EDTA, 1 mM EGTA, 10% glycerol, 0.5% NP-40, 1 mM dithiothreitol, 0.1 mM phenylmethylsulfonyl fluoride, 2.5 micro-g/ml leupeptin, 0.5 mM NaF, and 0.1 mM Na3VO4. After a 30 min incubation, insoluble material was removed by centrifugation. Cell extracts normalized for amount protein were resolved by SDS-PAGE and transferred to nitrocellulose membranes. Blots were blocked in PBS containing 0.05% Tween and 5% instant milk and incubated with antibody in PBS containing 0.05% Tween for 2 hr at room temperature. Proteins recognized by the antibody were detected by enhanced chemiluminescence using a horseradish peroxidase-coupled secondary antibody as specified by the manufacturer (Pierce).

p53 = p53 abundance in LNCaP cells, Western blotting; conditions: 30 micro-M pifithrin-alpha 24 hr, then 25 micro-M roscovitine 16 hr, FIG. 5A
Protocol: as §2

LNCaP-Rf cells = test: Keratin 18 cleavage, M30 immunostaining; conditions: 25 micro-M, 20 hr, FIG. 2B
Protocol: After incubation, cells were fixed in ice-cold methanol at […]. for 30 min and incubated with FITC-conjugated M30 antibody for 60 min at room temperature. Cells were mounted with Vectashield containing DAPI.

cytochrome c = test: Cytochrome c in S100 cytosolic extracts of LNCaP cells, Western blotting; conditions: 25 micro-M, 20 hr, FIG. 3B
Protocol: Cells were washed in ice-cold PBS, resuspended in an isotonic mitochondrial buffer (210 mM mannitol, 70 mM sucrose, 1 mM EDTA, 10 mM Hepes, pH 7.5, and a protease inhibitor cocktail (Sigma)), and homogenized in a Dounce homogenizer. The heavy membrane fraction was removed by two successive centrifugations, the first at 1000 H g for 10 min and the second at 10,000 H g for 10 min. To obtain the […], the supernatant was centrifuged at 100,000 H g for 90 min.

PC3 cells = test: DNA fragmentation, Cell Death Detection ELISA; conditions: 20 hr, FIG. 5B
Protocol: (§1) DNA fragmentation was determined using a photometric enzyme-linked immunoassay (Cell Death Detection ELISA kit, Roche) as specified by the manufacturer. […] Cell lysates were incubated with biotin-conjugated anti-histone antibody and peroxidase-conjugated anti-DNA antibody on streptavidin-coated microtiter plates for 2 hr at room temperature. After incubation with ATBS substrate for development of color, absorbance was read on a spectrophotometer at 405 nm against ABTS solution as the blank. For background determination, lysis buffer was used instead of cell lysate.

LNCaP cells [2] = test: DNA fragmentation, Cell Death Detection ELISA; conditions: co-treated with 25 micro-M roscovitine, 20 hr, FIG. 3A
Protocol: as §1

Compound: Cc1ccc(C(=O)Cn2c3c(sc2=N)CCCC3)cc1 [pifithrin-α]
- PARP cleavage in roscovitine-treated cells (LNCaP cells [1]): substantially reduced
- p53 abundance in cells co-treated with roscovitine (p53): did not increase

Compound: CC[C@H](CO)Nc1nc(NCc2ccccc2)c2ncn(C(C)C)c2n1 [roscovitine, 6-benzylamino-2-[(R)-1-ethyl-2-hydroxye-thylamino]-9-isopropylpurine]
- keratin 18 cleavage (LNCaP-Rf cells): keratin 18 cleavage
- cytochrome c in the cytosol (cytochrome c): present
- increase in amounts of fragmented DNA (PC3 cells; 25 μM): 8 fold
- increase in amounts of fragmented DNA (PC3 cells; 50 μM): 3 fold

Compound: z-LEHD-fmk
- roscovitine-induced apoptosis (DNA fragmentation) in presence of caspase inhibitor (LNCaP cells [2]): did not induce apoptosis

Compound: z-DEVD-fmk
- roscovitine-induced apoptosis (DNA fragmentation) in presence of caspase inhibitor (LNCaP cells [2]): did not induce apoptosis
